According to ChEMBL document CHEMBL1124714, “Synthesis and in vitro activity of stereoisomers of a novel thromboxane receptor antagonist, (+-)-(5Z)-7-[3-endo-[(phenylsulfonyl)amino]bicyclo [2.2.1]hept-2-exo-yl]heptenoic acid” (J Med Chem, 1990):

What was measured:
Assay type in all cases: functional, organism-based
Homo sapiens = organism: Homo sapiens; test: Inhibitory activity against aggregation of human platelet-rich plasma(induced by 4 uM of U-46619)
Rattus norvegicus [1] = organism: Rattus norvegicus; test: Inhibitory activity against aggregation of rat washed platelets (induced by 4 ug/mL of collagen)
Rattus norvegicus [2] = organism: Rattus norvegicus; test: Inhibitory activity against rat thoracic aorta(induced by 30 nM of U-46619)

Row | Compound | IC50 (Homo sapiens) [µM] | IC50 (Rattus norvegicus [1]) [µM] | IC50 (Rattus norvegicus [2]) [µM]
1 | O=C(O)CCC/C=C\C[C@@H]1C2CC[C@@H](C2)[C@@H]1NS(=O)(=O)c1ccccc1 | 2.5 | 0.0041 | 0.0372
2 | O=C(O)CCC/C=C\C[C@@H]1C2CC[C@@H](C2)[C@H]1NS(=O)(=O)c1ccccc1 | 3.3 | 0.0029 | 0.0169
3 | O=C(O)CCC/C=C\C[C@@H]1[C@H](CNNC(=O)Nc2ccccc2)[C@H]2CC[C@H]1O2 | 0.06 | – | –
4 | O=C(O)COc1ccc(CCNS(=O)(=O)c2ccccc2)cc1 [SULOTROBAN] | 7.2 | 0.26 | 1.8
5 | O=C(O)CCC/C=C\C[C@H]1C2CC[C@@H](C2)[C@@H]1NS(=O)(=O)c1ccccc1 | 0.45 | 0.0029 | 0.0014
